Test results from US4154837A, “(Aminoalkoxy-aryl)-substituted isoquinolinones and naphthydrinones and salts thereof, and hypotensive compositions and methods employing them” (Boehringer Ingelheim GmbH, priority 1977, dated 1979).
Where two headings read alike, the source gives them in different places.

Assays:
[1] = test system: blood circulation of dogs; experiment: Effect on blood circulation (arterial blood pressure, heart rate, contractility dp/dt max) in anesthetized dogs; format: in vivo; details: for Decrease of contractility, duration / inhibition in vivo at 1 mg/kg / inhibition in vivo at 0.25 mg/kg: left ventricle; for inhibition in vivo at 1 mg/kg / inhibition in vivo at 0.25 mg/kg: Canis lupus familiaris, iv, read-out: Decrease of contractility dp/dt max.
Experimental: (1.) Effect on blood circulation: The blood circulation tests were performed on dogs with a body weight of 19-30 kg under chloralose-urethane-nembutalanesthesia (54+270+10 mg/kg i.v.). After opening the thorax in the 4th left intercostal space, artificial respiration was applied to the animals with room air by means of an Harvard-Respirator. The arterial blood-pressure was measured in an arteria carotis with a Statham-transducer; the heart rate was measured electronically from the sequence of R-peaks of the electrocardiogram. The maximum rate of pressure increase (dp/dt max) in the left ventricle was measured by means of a Konigsberg pressure-receiver and a Grass differentiation amplifier. All parameters were recorded by means of a direct-writer. For inhibition of coagulation the animals were given 10 mgm/kg of potassium polyethylenesulfonate i.v. in 20% of polydiol. The test compounds were intravenously administered to 4-6 dogs per compound.

in vivo = details: mouse, mice, observation period 14 days
Experimental: (3.) determination of acute toxicity
The acute toxicity of the test compounds was determined in mice (observation period: 14 days) after oral or intravenous administration. The LD50 was calculated from the percentage of the animals that dies during the observation period after administration of varying doses: […]

[2] = test system: isolated guinea pig auricle; experiment: effect on the force of contraction and frequency of the isolated guinea pig auricle; details: Cavia porcellus, 37° C.; for inhibition at 30 µg/mL: 3.10^-5 gm/ml; for inhibition at 10 µg/mL: 10^-5 gm/ml; for inhibition at 3 µg/mL: 3.10^-6 gm/ml; for inhibition at 100 µg/mL: 10^-4 gm/ml
Experimental: (2.) effect on the force of contraction and frequency of the isolated guinea pig auricle
In spontaneously beating isolated auricles of guinea pigs, which were kept in carbogen-aerated ([…] +5% CO2) Krebs-Henseleit-solution at a temperature of 37° C., and at predetermined concentrations of the test compounds, the maximum developed tension (isometric force of contraction) and the frequency were measured: […]

[3] = read-out: Decrease in frequency
[4] = read-out: Decrease in maximum force of contraction

SMILES	Decrease in heart rate ([1]; 1.0 mgm/kg i.v.) [beats/min]	Decrease in heart rate, duration ([1]; 1.0 mgm/kg i.v.) [min]	Effect on average arterial blood pressure ([1]; 1.0 mgm/kg i.v.) [mm Hg]	Effect on average arterial blood pressure, duration ([1]; 1.0 mgm/kg i.v.) [min]	Decrease of contractility, duration ([1]; 1.0 mgm/kg i.v.) [min]	inhibition in vivo at 1 mg/kg ([1]; 1.0 mgm/kg i.v.) [%]	LD50 at 336 h (in vivo; iv) [mg/kg]	inhibition at 30 µg/mL [2, 3] [%]	inhibition at 30 µg/mL [2, 4] [%]	inhibition at 10 µg/mL [2, 3] [%]	inhibition at 10 µg/mL [2, 4] [%]	further results
COc1ccc2cc(-c3ccc(OCC(O)CNC(C)(C)C)cc3)n(C)c(=O)c2c1 (stereo not drawn) [A, 2-methyl-3-[4-(2-hydroxy-3-tert. butylamino-propoxy)-phenyl]-7-methoxy-isoquinolin-1 (2H)-one]	29 ± 15	36	-20 ± 2	50	44	50 ± 10	62	30	82	23	50	LD50 at 336 h (in vivo; po): 460 mg/kg
COc1ccc2cc(-c3ccccc3OCC(O)CNC(C)C)n(C)c(=O)c2c1.O=C(O)C(=O)O (stereo not drawn) [B, 2-methyl-3-[2-(2-hydroxy-3-isopropylamino-propoxy)-phenyl]-7-methoxy-isoquinolin-1 (2H)-one-oxalate]	19 ± 6	50	-24 ± 2	41	47	51 ± 7	47					
COc1ccc(-c2cc3ccc(OC)cc3c(=O)n2C)c(OCC(O)CNC(C)C)c1.O=C(O)C(=O)O (stereo not drawn) [C, 2-methyl-3-[2-(2-hydroxy-3-isopropylamino-propoxy)-4-methoxy-phenyl]-7-methoxy-isoquinolin-1 (2H)-one-oxalate]	38 ± 2	50	-17 ± 3	40	50	53 ± 6	50			29	29	LD50 at 336 h (in vivo; po): 500 mg/kg; inhibition at 3 µg/mL [2, 3]: 15%; inhibition at 3 µg/mL [2, 4]: 17%
COc1ccc(-c2cc3ccc(OC)cc3c(=O)n2C)c(OCC(O)CNC(C)(C)C)c1 (stereo not drawn) [D, 2-methyl-3-[2-(2-hydroxy-3-tert. butylamino-propoxy)-4-methoxy-phenyl]-7-methyoxy-isoquinoline-1 (2H)-one-oxalate]								40	64			Decrease in heart rate ([1]; 0.25 mgm/kg i.v.): 15 ± 5 beats/min; Decrease in heart rate, duration ([1]; 0.25 mgm/kg i.v.): 27 min; Effect on average arterial blood pressure ([1]; 0.25 mgm/kg i.v.): -6 ± 3 mm Hg; Effect on average arterial blood pressure, duration ([1]; 0.25 mgm/kg i.v.): 24 min; Decrease of contractility, duration ([1]; 0.25 mgm/kg i.v.): 28 min; inhibition in vivo at 0.25 mg/kg ([1]; 0.25 mgm/kg i.v.): 36 ± 13%
COc1cc2cc(-c3ccc(OCC(O)CNC(C)(C)C)cc3)n(C)c(=O)c2cc1OC (stereo not drawn) [E, 2-methyl-3-[4-(2-hydroxy-3-tert. butylamino-propoxy)-phenyl]-6,7-dimethoxy-isoquinolin-1 (2H)-one]	25 ± 6	51	-18 ± 11	11	51	52 ± 8		31	54			inhibition at 100 µg/mL [2, 3]: 46%; inhibition at 100 µg/mL [2, 4]: 72%
COc1cc2cc(-c3ccc(OCC(O)CNC(C)C)cc3)n(C)c(=O)c2cc1OC (stereo not drawn) [F, 2-methyl-3-[4-(2-hydroxy-3-isopropylamino-propoxy)-phenyl]-6,7-dimethoxy-isoquinolin-1 (2H)-one]	12 ± 6	31	-7 ± 3	17	43	33 ± 6		29	43	22	30	
COc1ccc2cc(-c3ccc(OCC(O)CNC(C)C)c(OC)c3)n(C)c(=O)c2c1 (stereo not drawn) [G, 2-methyl-3-[3-methoxy-4-(2-hydroxy-3-isopropylamino-propoxy)-phenyl]-7-methoxy-isoquinolin-1 (2H)-one]								37	48	22	35	Decrease in heart rate ([1]; 0.25 mgm/kg i.v.): 37 ± 5 beats/min; Decrease in heart rate, duration ([1]; 0.25 mgm/kg i.v.): 54 min; Effect on average arterial blood pressure ([1]; 0.25 mgm/kg i.v.): -3 ± 2 mm Hg; Effect on average arterial blood pressure, duration ([1]; 0.25 mgm/kg i.v.): 20 min; Decrease of contractility, duration ([1]; 0.25 mgm/kg i.v.): 48 min; inhibition in vivo at 0.25 mg/kg ([1]; 0.25 mgm/kg i.v.): 48 ± 6%
COc1ccc2cc(CCc3ccc(OCC(O)CNC(C)C)cc3)n(C)c(=O)c2c1 (stereo not drawn) [H, 2-methyl-3-[4-(2-hydroxy-3-isopropylamino-propoxy)-phenethyl]-7-methoxy-isoquinolin-1 (2H)-one]	34 ± 10	47	-25 ± 15	20	47	53 ± 13						
